For assay [1], the system named is Mycobacterium tuberculosis. The assay can be described thus: Bacteriostatic activity against rifampicin, isoniazid, streptomycin, ethambutol and pyrazinamide-resistant Mycobacterium tuberculosis MS-115 assessed as growth inhibition. The assay is classed as functional.
For assay [2], the system named is Mycobacterium tuberculosis. The assay can be described thus: Bacteriostatic activity against rifampicin, isoniazid, streptomycin, ethambutol and pyrazinamide-resistant Mycobacterium tuberculosis MS-115 assessed as growth inhibition at 10 ug/mL relative to control. The assay is classed as functional. The settings on record: read-out: GI.
Assay [3] has as its system Mycobacterium tuberculosis. The assay can be described thus: Bacteriostatic activity against rifampicin, isoniazid, streptomycin, ethambutol and pyrazinamide-resistant Mycobacterium tuberculosis MS-115 assessed as growth inhibition at 20 ug/mL relative to control. The assay is classed as functional. As to conditions: read-out: GI.
In assay [4] the test system is Mycobacterium tuberculosis. Kind of assay: Bacteriostatic activity against rifampicin, isoniazid, streptomycin, ethambutol and pyrazinamide-resistant Mycobacterium tuberculosis MS-115 assessed as growth inhibition at 50 ug/mL relative to control. As to conditions: read-out: GI. The assay is classed as functional.
The test system of assay [5] is Mycobacterium tuberculosis. The assay can be described thus: Bacteriostatic activity against rifampicin, isoniazid, streptomycin, ethambutol and pyrazinamide-resistant Mycobacterium tuberculosis MS-115 assessed as growth inhibition at 2 to 200 ug/mL relative to control. The assay is classed as functional, organism-based.
The test system of assay [6] is Mycobacterium tuberculosis. The assay can be described thus: Bacteriostatic activity against rifampicin, isoniazid, streptomycin, ethambutol and pyrazinamide-resistant Mycobacterium tuberculosis MS-115 assessed as growth inhibition at 2 ug/mL relative to control. In kind it is functional. As to conditions: read-out: GI.
Assay [7] concerns Mycobacterium tuberculosis. Kind of assay: Bacteriostatic activity against rifampicin, isoniazid, streptomycin, ethambutol and pyrazinamide-resistant Mycobacterium tuberculosis MS-115 assessed as growth inhibition at 200 ug/mL relative to control. In kind it is functional. As to conditions: read-out: GI.
Assay [8] has as its system Mycobacterium tuberculosis. Kind of assay: Bacteriostatic activity against rifampicin, isoniazid, streptomycin, ethambutol and pyrazinamide-resistant Mycobacterium tuberculosis MS-115 assessed as growth inhibition at 5 ug/mL relative to control. The assay is classed as functional. The settings on record: read-out: GI.

One may read the MIC99 as the lowest concentration that inhibits either 99% of growth or 99% of the strains tested, depending on the study.

Structures are written as SMILES. Values after ≈ are worked out from the molar mass of the structure shown. Active and inactive are the calls of the source. The rule behind the calls is not given here.

For the molecule `CCCCCCCCCCCCc1cn(Cc2cn([C@H]3C[C@H](O)[C@@H](CO)O3)c(=O)nc2N)nn1`, the MIC99 in assay [1] was determined as 10 µg/mL (≈ 21 µM). In addition, in assay [2], the inhibition of growth at 10 µg/mL was 99%. Besides, in assay [3], the inhibition of growth at 20 µg/mL came out at 100%. For the same molecule, the inhibition of growth at 50 µg/mL in assay [4] came to 100%.
Turning to `CCCCCCCCCCc1cn(Cc2cn([C@H]3C[C@H](O)[C@@H](CO)O3)c(=O)nc2N)nn1`, in assay [1], the MIC99 was 50 µg/mL (≈ 111 µM). Besides, the inhibition of growth at 20 µg/mL in assay [3] came to 75%. The inhibition of growth at 50 µg/mL in assay [4] amounted to 100%.
As for `CO[C@H]1/C=C/O[C@@]2(C)Oc3c(C)c(O)c4c(O)c(c(/C=N/N5CCN(C)CC5)c(O)c4c3C2=O)NC(=O)/C(C)=C\C=C\[C@H](C)[C@H](O)[C@@H](C)[C@@H](O)[C@@H](C)[C@H](OC(C)=O)[C@@H]1C` [RIFAMPIN], the MIC99 result in assay [1] is “inactive”. Further, the “growth inhibition (GI)” value in assay [5] was “inactive”.
Consider `CCCCCCCCCCCCOCc1cn([C@H]2C[C@H](O)[C@@H](CO)O2)c(=O)[nH]c1=O`, for which the MIC99 in assay [1] is 50 µg/mL (≈ 117 µM). Moreover, the inhibition of growth at 2 µg/mL in assay [6] is 50%. For the same molecule, in assay [4], the inhibition of growth at 50 µg/mL amounted to 100%. Moreover, the inhibition of growth at 200 µg/mL in assay [7] was found to be 100%.
On to `CCCCCCCCCCCCc1cn(Cc2cn([C@H]3C[C@H](O)[C@@H](CO)O3)c(=O)[nH]c2=O)nn1`, for which, in assay [1], the MIC99 amounted to 10 µg/mL (≈ 20.9 µM). Also, in assay [8], the inhibition of growth at 5 µg/mL amounted to 90%. The inhibition of growth at 10 µg/mL in assay [2] came out at 99%. In addition, in assay [3], the inhibition of growth at 20 µg/mL turned out to be 99%. The inhibition of growth at 50 µg/mL in assay [4] was determined as 100%.
With `NC(=O)c1cnccn1`, the “growth inhibition (GI)” value in assay [5] is “inactive”.
Take `NNC(=O)c1ccncc1` [ISONIAZID]: the MIC99 entry in assay [1] is “inactive”. For the same molecule, in assay [5], the “growth inhibition (GI)” value is “inactive”.
As for `CC1COc2c(N3CCN(C)CC3)c(F)cc3c(=O)c(C(=O)O)cn1c23` (centres undefined) [OFLOXACIN], the MIC99 in assay [1] was 2 µg/mL (≈ 5.53 µM). The inhibition of growth at 2 µg/mL in assay [6] turned out to be 100%.
Take `CN[C@@H]1[C@H](O[C@H]2[C@H](O[C@H]3[C@H](O)[C@@H](O)[C@H](N=C(N)N)[C@@H](O)[C@@H]3N=C(N)N)O[C@@H](C)[C@]2(O)C=O)O[C@@H](CO)[C@H](O)[C@H]1O`: the “growth inhibition (GI)” value in assay [5] is “inactive”.
For the molecule `CCCCCCCCCCc1cn(Cc2cn([C@H]3C[C@H](O)[C@@H](CO)O3)c(=O)[nH]c2=O)nn1`, the MIC99 in assay [1] turned out to be 10 µg/mL (≈ 22.2 µM). The inhibition of growth at 5 µg/mL in assay [8] is 75%. Moreover, the inhibition of growth at 10 µg/mL in assay [2] turned out to be 99%. Besides, the inhibition of growth at 20 µg/mL in assay [3] was 100%. In assay [4], the inhibition of growth at 50 µg/mL was 100%.
For `CC[C@@H](CO)NCCN[C@@H](CC)CO`, the “growth inhibition (GI)” value in assay [5] is “inactive”.
`CCCCCCCCCCCCOCc1cn([C@H]2C[C@H](N)[C@@H](CO)O2)c(=O)[nH]c1=O`: the MIC99 in assay [1] is 20 µg/mL (≈ 47 µM). Besides, the inhibition of growth at 20 µg/mL in assay [3] stood at 100%. Also, in assay [4], the inhibition of growth at 50 µg/mL was 100%. In addition, the inhibition of growth at 200 µg/mL in assay [7] is 100%.

Source of the values: ChEMBL document CHEMBL2412960, “Inhibition of Mycobacterium tuberculosis strains H37Rv and MDR MS-115 by a new set of C5 modified pyrimidine nucleosides” (Bioorg Med Chem, 2013).
